Assay results: ChEMBL document CHEMBL2034905, “Synthesis of benzimidazolyl-1,3,4-oxadiazol-2ylthio-N-phenyl (benzothiazolyl) acetamides as antibacterial, antifungal and antituberculosis agents” (Eur J Med Chem, 2012)
≈ marks a conversion by molar mass, not a printed value.

Columns and labels:
[1] = tested on: Mycobacterium tuberculosis; experiment: Antituberculosis activity against Mycobacterium tuberculosis H37Rv by Lowenstein-Jensen method; assay type: functional
[2] = tested on: Mycobacterium tuberculosis; experiment: Antituberculosis activity against Mycobacterium tuberculosis H37Rv at 6.25 ug/ml by Lowenstein-Jensen method; assay type: functional
Staphylococcus aureus [3] = experiment: Antibacterial activity against Staphylococcus aureus MTCC 96 at 100 ug/disc by paper disc diffusion technique; assay type: functional; conditions: read-out: IZ
Bacillus cereus [4] = experiment: Antibacterial activity against Bacillus cereus MTCC 430 at 100 ug/disc by paper disc diffusion technique; assay type: functional; conditions: read-out: IZ
Escherichia coli [5] = experiment: Antibacterial activity against Escherichia coli MTCC 739 at 100 ug/disc by paper disc diffusion technique; assay type: functional; conditions: read-out: IZ
Pseudomonas aeruginosa [6] = experiment: Antibacterial activity against Pseudomonas aeruginosa MTCC 741 at 100 ug/disc by paper disc diffusion technique; assay type: functional; conditions: read-out: IZ
Klebsiella pneumoniae [7] = experiment: Antibacterial activity against Klebsiella pneumoniae MTCC 109 at 100 ug/disc by paper disc diffusion technique; assay type: functional; conditions: read-out: IZ
Salmonella typhi [8] = experiment: Antibacterial activity against Salmonella typhi MTCC 733 at 100 ug/disc by paper disc diffusion technique; assay type: functional, Salmonella enterica subsp. enterica serovar Typhi; conditions: Salmonella enterica, read-out: IZ
Proteus vulgaris [9] = experiment: Antibacterial activity against Proteus vulgaris MTCC 1771 at 100 ug/disc by paper disc diffusion technique; assay type: functional; conditions: read-out: IZ
Shigella flexneri [10] = experiment: Antibacterial activity against Shigella flexneri MTCC 1457 at 100 ug/disc by paper disc diffusion technique; assay type: functional; conditions: read-out: IZ
Staphylococcus aureus [11] = experiment: Antibacterial activity against Staphylococcus aureus MTCC 96 by agar streak dilution method; assay type: functional
Bacillus cereus [12] = experiment: Antibacterial activity against Bacillus cereus MTCC 430 by agar streak dilution method; assay type: functional
Escherichia coli [13] = experiment: Antibacterial activity against Escherichia coli MTCC 739 by agar streak dilution method; assay type: functional
Pseudomonas aeruginosa [14] = experiment: Antibacterial activity against Pseudomonas aeruginosa MTCC 741 by agar streak dilution method; assay type: functional
Klebsiella pneumoniae [15] = experiment: Antibacterial activity against Klebsiella pneumoniae MTCC 109 by agar streak dilution method; assay type: functional
Salmonella typhi [16] = experiment: Antibacterial activity against Salmonella typhi MTCC 733 by agar streak dilution method; assay type: functional, Salmonella enterica subsp. enterica serovar Typhi; conditions: Salmonella enterica
Proteus vulgaris [17] = experiment: Antibacterial activity against Proteus vulgaris MTCC 1771 by agar streak dilution method; assay type: functional
Shigella flexneri [18] = experiment: Antibacterial activity against Shigella flexneri MTCC 1457 by agar streak dilution method; assay type: functional
Aspergillus niger [19] = experiment: Antifungal activity against Aspergillus niger MTCC 282 at 100 ug/disc by paper disc diffusion technique; assay type: functional; conditions: read-out: IZ
Aspergillus fumigatus [20] = experiment: Antifungal activity against Aspergillus fumigatus MTCC 343 at 100 ug/disc by paper disc diffusion technique; assay type: functional; conditions: read-out: IZ
Aspergillus clavatus [21] = experiment: Antifungal activity against Aspergillus clavatus MTCC 1323 at 100 ug/disc by paper disc diffusion technique; assay type: functional; conditions: read-out: IZ
Candida albicans [22] = experiment: Antifungal activity against Candida albicans MTCC 183 at 100 ug/disc by paper disc diffusion technique; assay type: functional; conditions: read-out: IZ
Aspergillus niger [23] = experiment: Antifungal activity against Aspergillus niger MTCC 282 by agar streak dilution method; assay type: functional
Aspergillus fumigatus [24] = experiment: Antifungal activity against Aspergillus fumigatus MTCC 343 by agar streak dilution method; assay type: functional
Aspergillus clavatus [25] = experiment: Antifungal activity against Aspergillus clavatus MTCC 1323 by agar streak dilution method; assay type: functional
Candida albicans [26] = experiment: Antifungal activity against Candida albicans MTCC 183 by agar streak dilution method; assay type: functional
[27] = tested on: Mycobacterium tuberculosis; experiment: Antituberculosis activity against Mycobacterium tuberculosis H37Rv by BACTEC MGIT method; assay type: functional

Row | Compound | MIC [1] [µg/mL] | inhibition at 6.25 µg/mL [2] [%] | zone of inhibition at 100 µg/disc (Staphylococcus aureus [3]) [mm] | zone of inhibition at 100 µg/disc (Bacillus cereus [4]) [mm] | zone of inhibition at 100 µg/disc (Escherichia coli [5]) [mm] | zone of inhibition at 100 µg/disc (Pseudomonas aeruginosa [6]) [mm] | zone of inhibition at 100 µg/disc (Klebsiella pneumoniae [7]) [mm] | zone of inhibition at 100 µg/disc (Salmonella typhi [8]) [mm] | zone of inhibition at 100 µg/disc (Proteus vulgaris [9]) [mm] | zone of inhibition at 100 µg/disc (Shigella flexneri [10]) [mm] | MIC (Staphylococcus aureus [11]) [µg/mL] | MIC (Bacillus cereus [12]) [µg/mL] | MIC (Escherichia coli [13]) [µg/mL] | MIC (Pseudomonas aeruginosa [14]) [µg/mL] | MIC (Klebsiella pneumoniae [15]) [µg/mL] | MIC (Salmonella typhi [16]) [µg/mL] | MIC (Proteus vulgaris [17]) [µg/mL] | MIC (Shigella flexneri [18]) [µg/mL] | zone of inhibition at 100 µg/disc (Aspergillus niger [19]) [mm] | zone of inhibition at 100 µg/disc (Aspergillus fumigatus [20]) [mm] | other results
1 | O=C(CSc1nnc(Cn2cnc3ccccc32)o1)Nc1ccc([N+](=O)[O-])cc1 | 100 (≈ 244 µM) | 94 | 20 | 13 | 12 | 20 | 20 | 13 | 14 | 19 | 12.5 (≈ 30.5 µM) | 100 (≈ 244 µM) | 100 (≈ 244 µM) | 50 (≈ 122 µM) | 100 (≈ 244 µM) | 100 (≈ 244 µM) | 100 (≈ 244 µM) | 100 (≈ 244 µM) | 18 | 18 | zone of inhibition at 100 µg/disc (Aspergillus clavatus [21]): 24 mm; zone of inhibition at 100 µg/disc (Candida albicans [22]): 15 mm; MIC (Aspergillus niger [23]): 50 µg/mL (≈ 122 µM); MIC (Aspergillus fumigatus [24]): 100 µg/mL (≈ 244 µM); MIC (Aspergillus clavatus [25]): 50 µg/mL (≈ 122 µM); MIC (Candida albicans [26]): 100 µg/mL (≈ 244 µM); MIC [27]: > 6.25 µg/mL
2 | N#Cc1ccc(NC(=O)CSc2nnc(Cn3cnc4ccccc43)o2)cc1 | 62.5 (≈ 160 µM) | 96 | 18 | 19 | 19 | 21 | 24 | 20 | 19 | 17 | 25 (≈ 64 µM) | 50 (≈ 128 µM) | 50 (≈ 128 µM) | 50 (≈ 128 µM) | 25 (≈ 64 µM) | 50 (≈ 128 µM) | 50 (≈ 128 µM) | 100 (≈ 256 µM) | < 10 | 14 | zone of inhibition at 100 µg/disc (Aspergillus clavatus [21]): 13 mm; zone of inhibition at 100 µg/disc (Candida albicans [22]): 11 mm; MIC (Aspergillus niger [23]): 100 µg/mL (≈ 256 µM); MIC (Aspergillus fumigatus [24]): 100 µg/mL (≈ 256 µM); MIC (Aspergillus clavatus [25]): 100 µg/mL (≈ 256 µM); MIC (Candida albicans [26]): 100 µg/mL (≈ 256 µM); MIC [27]: > 6.25 µg/mL
3 | O=C(CSc1nnc(Cn2cnc3ccccc32)o1)Nc1ccc(Cl)cc1 | 25 (≈ 62.5 µM) | 98 | 15 | 11 | 15 | 26 | 21 | 17 | 20 | 22 | 50 (≈ 125 µM) | 50 (≈ 125 µM) | 100 (≈ 250 µM) | 12.5 (≈ 31.3 µM) | 50 (≈ 125 µM) | 100 (≈ 250 µM) | 50 (≈ 125 µM) | 12.5 (≈ 31.3 µM) | < 10 | 16 | zone of inhibition at 100 µg/disc (Aspergillus clavatus [21]): 14 mm; zone of inhibition at 100 µg/disc (Candida albicans [22]): 14 mm; MIC (Aspergillus niger [23]): 100 µg/mL (≈ 250 µM); MIC (Aspergillus fumigatus [24]): 100 µg/mL (≈ 250 µM); MIC (Aspergillus clavatus [25]): 100 µg/mL (≈ 250 µM); MIC (Candida albicans [26]): 100 µg/mL (≈ 250 µM); MIC [27]: > 6.25 µg/mL
4 | O=C(O)c1cn(C2CC2)c2cc(N3CCNCC3)c(F)cc2c1=O [CIPROFLOXACIN] |  |  | 30 | 31 | 32 | 33 | 33 | 30 | 31 | 32 | 1.56 (≈ 4.71 µM) | 0.39 (≈ 1.18 µM) |  | 0.78 (≈ 2.35 µM) | 0.78 (≈ 2.35 µM) | 0.39 (≈ 1.18 µM) | 0.39 (≈ 1.18 µM) | 1.56 (≈ 4.71 µM) |  |  | 
5 | CCOc1ccc(NC(=O)CSc2nnc(Cn3cnc4ccccc43)o2)cc1 | 50 (≈ 122 µM) | 98 | 14 | 18 | 23 | 16 | < 10 | 21 | 25 | 22 | 50 (≈ 122 µM) | 50 (≈ 122 µM) | 25 (≈ 61.1 µM) | 100 (≈ 244 µM) | 100 (≈ 244 µM) | 50 (≈ 122 µM) | 12.5 (≈ 30.5 µM) | 25 (≈ 61.1 µM) | 17 | 11 | zone of inhibition at 100 µg/disc (Aspergillus clavatus [21]): 16 mm; zone of inhibition at 100 µg/disc (Candida albicans [22]): 24 mm; MIC (Aspergillus niger [23]): 50 µg/mL (≈ 122 µM); MIC (Aspergillus fumigatus [24]): 100 µg/mL (≈ 244 µM); MIC (Aspergillus clavatus [25]): 100 µg/mL (≈ 244 µM); MIC (Candida albicans [26]): 25 µg/mL (≈ 61.1 µM); MIC [27]: > 6.25 µg/mL
